Holding throughout (assay): In vitro antibacterial test, MIC by broth dilution
What all share (type): cell-based

Experiment [1] relates to Candida albicans. As to conditions: Candida albicans GC 3066; 18 hours at 35° C. As to the method: (§1) The minimum inhibitory concentration (MIC), the lowest concentration of the antibiotic which inhibits growth of the test organism, is determined by the broth dilution method using Muller-Hinton II […] (Baltimore Biological Laboratories) following the recommendations of the National Committee for Clinical Laboratory Standards [Methods for dilution antimicrobial susceptibility tests for bacteria that grow aerobically. Approved standard M7-A2. National Committee for Clinical Laboratory Standards, Villanova, Pa.].
(§2) An inoculum level of 5×10^5 CFU/ml, and a range of antibiotic concentrations (64–0.06 μg/ml) is used. The MIC is determined after the microtiter plates are incubated for 18 hours at 35° C. in an ambient air incubator. The test organisms comprise a spectrum of Gram-positive bacteria Staphylococcus sp., Streptococcus pneumoniae, Enterococcus sp., Gram-negative bacteria Escherichia coli, and the yeast Candida albicans. These organisms include recent clinical isolates that are resistant to piperacillin or vancomycin.

The test system of experiment [2] is Enterococcus faecalis. As to conditions: 18 hours at 35° C. On the procedure:
as §1, §2

The test system of experiment [3] is Staphylococcus haemolyticus. The settings on record: Staphylococcus haemolyticus GC 4547, resistant to methicillin; 18 hours at 35° C. On the procedure: as §1, §2
Experiment [4] concerns Streptococcus pneumoniae. The settings on record: 18 h. On the procedure:
as §1, §2

The test system of experiment [5] is Escherichia coli. The settings on record: 18 hours at 35° C. On the procedure:
as §1, §2

The test system of experiment [6] is Staphylococcus aureus. The settings on record: 18 h. As to the method: as §1, §2
Experiment [7] concerns Enterococcus faecium. The settings on record: 18 h. On the procedure:
as §1, §2

Converted amounts (≈) assume the structure as drawn. Read-outs that look alike come from different tables or passages of the source.

The term MIC denotes the lowest concentration that inhibits growth of the organism. `C=CC1C=C(C)C2C3C(Oc4ccc(cc4)CC4(O)C=C(C(=O)N4)C(=O)C13)C1C(C)CC(C)CC21C` (stereo not shown) [Cyan426-A]: the MIC in experiment [1] came out at 8 µg/mL (≈ 16.4 µM); in experiment [2] (Enterococcus faecalis GC 2242, resistant to vancomycin) it was 0.50 µg/mL (≈ 1.03 µM); in experiment [2] (Enterococcus faecalis GC 4555), 0.50 µg/mL (≈ 1.03 µM); in experiment [2] (Enterococcus faecalis GC 6189, read-out: MIC), 0.5 µg/mL (≈ 1.03 µM); in experiment [3], 0.25 µg/mL (≈ 0.513 µM); in experiment [4] (Streptococcus pneumoniae GC 1894, 18 hours at 35° C.), 64 µg/mL (≈ 131 µM). Also, the minimum inhibitory concentration (MIC) turned out to be 16 µg/mL (≈ 32.8 µM) in experiment [4] (Streptococcus pneumoniae GC 6242, 18 hours at 35° C.); 128 µg/mL (≈ 262 µM) in experiment [5] (Escherichia coli GC 4559, read-out: MIC); 2 µg/mL (≈ 4.1 µM) in experiment [5] (Escherichia coli, 18 h, Escherichia coli GC 4560 (imp)); 2 µg/mL (≈ 4.1 µM) in experiment [6] (Staphylococcus aureus GC 1131, resistant to methicillin, 18 hours at 35° C.); 1 µg/mL (≈ 2.05 µM) in experiment [6] (Staphylococcus aureus GC 2216, 18 hours at 35° C.); 0.25 µg/mL (≈ 0.513 µM) in experiment [6] (Staphylococcus aureus GC 4541, resistant to methicillin, 18 hours at 35° C.). The MIC in experiment [6] (Staphylococcus aureus GC 4543, 18 hours at 35° C.) is 1 µg/mL (≈ 2.05 µM); in experiment [7] (Enterococcus faecium GC 2243, marked * (resistant to methicillin), 18 hours at 35° C.) it was 1 µg/mL (≈ 2.05 µM); in experiment [7] (Enterococcus faecium GC 4556, 18 hours at 35° C.) it was 1 µg/mL (≈ 2.05 µM); in experiment [7] (Enterococcus faecium GC 4558, marked * (resistant to methicillin), 18 hours at 35° C.) it was 0.5 µg/mL (≈ 1.03 µM).

For the origin of these results see US7129266B2, “Antibiotic Cyan426-A” (Wyeth Holdings Corporation, priority 2002, dated 2006).
